This data set is described as follows: Absorbance and fluorescence measurements (excitation maximum, emission maximum, quantum yield vs coumarin 151). In kind it is physicochemical. Particulars: for λex: absorbance/excitation maximum; for Quantum Yield: coumarin 151 in ethanol as standard; for λem: emission maximum. On the set-up: key to Quantum Yield: fraction relative to coumarin 151 in ethanol standard. The text has this:
All reagents and solvents were acquired from commercially available suppliers and used without further purification. Methanol(dried on molecular sieves-Acroseal) was obtained from Acros. […] 1H and 13C NMR spectra were obtained on a Bruker NMR spectrometer at 500/400 and 125/100 MHz respectively. The data is reported as follows: chemical shift in ppm (δ), multiplicity (s=singlet, d=doublet, dd=doublet of doublets, t=triplet, dt=doublet of triplets, td=triplet of doublets, q=quartet, p=pentet, m=multiplet). Coupling constants are reported in Hertz (Hz) and were automatically generated using known NMR analyzer software (MestReNova), these were then subsequently curated. High-resolution mass spectra were obtained using the positive ESI method for all the compounds, obtained in an Ion Cyclotron Resonance (ICR) spectrometer. Absorbance spectra were obtained using an Agilent 8453 UV-visible spectroscopy system. Fluorescence was measured on a Varian (Agilent) Cary Eclipse Fluorimeter. Quantum yield measurements were calculated and reported using coumarin 151 in ethanol as a standard.^1 Fluorescence scans were obtained using a 2.5 mm slit width unless otherwise noted.
The fluorescence was also measured in different solvents to examine the solvent effects.

Setting [1] is: 2.5 mm slit width, measurements run with methanol.

Several values for one entry are separate records, joined by “and”; a condition that tells them apart may be missing. Identical values can stand only once.

The record followed here is US20260071117A1, “FUNABLE FLUORESCENT COMPOUNDS AND USES THEREOF” (Arizona Board of Regents on Behalf of the University of …, priority 2021, published 2026).

As to “2-(3,4,5-trimethoxyphenyl)imidazo[1,2-a]pyridin-3-amine [Compound 10a]”, the λex (measurements run with methanol) came to 343 nm. Moreover, under setting [1], the “Quantum Yield” value was determined as 0.36 and the λem is 474 nm.

Under “measurements run with methanol”, `Nc1c(-c2ccc3ccccc3c2)nc2cccnn12` [Compound 10ab, 2-(naphthalen-2-yl)imidazo[1,2-b]pyridazin-3-amine] yielded a λex of 438 nm. Moreover, under setting [1], the “Quantum Yield” value is recorded as 0.04 and the λem came to 543 nm.

Where the note is “measurements run with methanol”, `COc1ccc(-c2nc3cccnn3c2N)cc1` [Compound 10ac, 2-(4-methoxyphenyl)imidazo[1,2-b]pyridazin-3-amine] showed a λex of 435 nm. Further, under setting [1], the “Quantum Yield” value came out at 0.03 and the λem came to 543 nm.

`COc1cc(-c2nc3cccnn3c2N)cc(OC)c1OC` [Compound 10ad, 2-(3,4,5-trimethoxyphenyl)imidazo[1,2-b]pyridazin-3-amine] gave a λex (measurements run with methanol) of 429 nm. For the same compound, under setting [1], the “Quantum Yield” value is recorded as 0.03 and the λem stood at 541 nm.

With `COc1ccc(-c2nc3cccnn3c2N)c(OC)c1` [Compound 10ae, 2-(2,4-dimethoxyphenyl)imidazo[1,2-b]pyridazin-3-amine], for the setting “measurements run with methanol”, the λex came to 433 nm. Under setting [1], the “Quantum Yield” value was determined as 0.02 and the λem worked out at 555 nm.

Compound `Nc1c(-c2ccc(N(c3ccccc3)c3ccccc3)cc2)nc2cccnn12` [Compound 10af, 2-(4-(diphenylamino)phenyl)imidazo[1,2-b]pyridazin-3-amine] showed a λex (measurements run with methanol) of 438 nm. Moreover, under setting [1], the “Quantum Yield” value stood at 0.05 and the λem is 544 nm.

For the setting “measurements run with methanol”, `CCN(CC)c1ccc(-c2nc3cccnn3c2N)cc1` [Compound 10ag, 2-(4-(diethylamino)phenyl)imidazo[1,2-b]pyridazin-3-amine] yielded a λex of 444 nm. In addition, under setting [1], the “Quantum Yield” value is listed as 0.06 and the λem was 572 nm.

Compound `COC(=O)c1ccn2c(N)c(-c3ccccc3)nc2c1` [Compound 10ah, methyl 3-amino-2-phenylimidazo[1,2-a]pyridine-7-carboxylate] came in with a λex (measurements run with methanol) of 394 nm. In addition, under setting [1], the “Quantum Yield” value is 0.40 and the λem amounted to 510 nm.

Where the note is “measurements run with methanol”, `COC(=O)c1ccn2c(N)c(-c3ccc4ccccc4c3)nc2c1` [Compound 10ai, methyl 3-amino-2-(naphthalen-2-yl)imidazo[1,2-a]pyridine-7-carboxylate] gave a λex of 434 nm. Under setting [1], the “Quantum Yield” value is reported as 0.47 and the λem came out at 512 nm.

Turning to `COC(=O)c1ccn2c(N)c(-c3ccc(-c4ccccc4)cc3)nc2c1` [Compound 10aj, methyl 2-([1,1′-biphenyl]-4-yl)-3-aminoimidazo[1,2-a]pyridine-7-carboxylate], for the setting “measurements run with methanol”, the λex turned out to be 403 nm. Moreover, under setting [1], the “Quantum Yield” value came out at 0.45 and the λem came out at 517 nm.

`COC(=O)c1ccn2c(N)c(-c3ccc(OC)cc3)nc2c1` [Compound 10ak, methyl 3-amino-2-(4-methoxyphenyl)imidazo[1,2-a]pyridine-7-carboxylate] displayed a λex (measurements run with methanol) of 394 nm. In addition, under setting [1], the “Quantum Yield” value came to 0.40 and the λem came out at 510 nm.

`COC(=O)c1ccn2c(N)c(-c3cc(OC)c(OC)c(OC)c3)nc2c1` [Compound 10al, methyl 3-amino-2-(3,4,5-trimethoxyphenyl)imidazo[1,2-a]pyridine-7-carboxylate]: the λex (measurements run with methanol) is on record as 399 nm. Under setting [1], the “Quantum Yield” value is listed as 0.51 and the λem amounted to 512 nm.

Regarding `COC(=O)c1ccn2c(N)c(-c3ccc(OC)cc3OC)nc2c1` [Compound 10am, methyl 3-amino-2-(2,4-dimethoxyphenyl)imidazo[1,2-a]pyridine-7-carboxylate], where the note is “measurements run with methanol”, the λex was 402 nm. Under setting [1], the “Quantum Yield” value is 0.49 and the λem is reported as 519 nm.

`COC(=O)c1ccn2c(N)c(-c3ccc(N(c4ccccc4)c4ccccc4)cc3)nc2c1` [Compound 10an, methyl 3-amino-2-(4-(diphenylamino)phenyl)imidazo[1,2-a]pyridine-7-carboxylate] had a λex (measurements run with methanol) of 430 nm. Under setting [1], the “Quantum Yield” value worked out at 0.44 and the λem is listed as 529 nm.

With `CCN(CC)c1ccc(-c2nc3cc(C(=O)OC)ccn3c2N)cc1` [Compound 10ao, methyl 3-amino-2-(4-(diethylamino)phenyl)imidazo[1,2-a]pyridine-7-carboxylate], for the setting “measurements run with methanol”, the λex turned out to be 432 nm. Further, under setting [1], the “Quantum Yield” value came out at 0.25 and the λem was found to be 540 nm.

The compound `CC(C)(C)Nc1c(-c2ccc(-c3nc4ccccn4c3NC(C)(C)C)cc2)nc2ccccn12` [Compound 10ap, 2,2′-(1,4-phenylene)bis(N-(tert-butyl)imidazo[1,2-a]pyridin-3-amine)] registered a λex (measurements run with methanol) of 344 nm. Besides, under setting [1], the “Quantum Yield” value came out at 0.30 and the λem is 458 nm.

As to `COc1ccc(-c2nc3ccc(-c4ccccc4)cn3c2N)cc1` [Compound 10ar, 2-(4-methoxyphenyl)-6-phenylimidazo[1,2-a]pyridin-3-amine], for the setting “measurements run with methanol”, the λex is recorded as 350 nm. Under setting [1], the “Quantum Yield” value was found to be 0.09 and the λem is reported as 510 nm.

For the compound `COc1ccc(-c2nc3ccc(N4CCCCC4)cn3c2N)cc1` [Compound 10as, 2-(4-methoxyphenyl)-6-(piperidin-1-yl)imidazo[1,2-a]pyridin-3-amine], the λex (measurements run with methanol) is given as 341 nm. Besides, under setting [1], the “Quantum Yield” value is 0.07 and the λem was determined as 479 nm.

Compound `COc1ccc(-c2nc3cc(OC)ccn3c2N)cc1` [Compound 10at, 7-methoxy-2-(4-methoxyphenyl)imidazo[1,2-a]pyridin-3-amine] returned a λex (measurements run with methanol) of 344 nm. Further, under setting [1], the “Quantum Yield” value is 0.10 and the λem is on record as 500 nm.

The compound `COc1ccn2c(N)c(-c3ccc([N+](=O)[O-])cc3)nc2c1` [Compound 10au, 7-methoxy-2-(4-nitrophenyl)imidazo[1,2-a]pyridin-3-amine] registered a λex (measurements run with methanol) of 360 nm.

In turn, `N#Cc1ccc(-c2nc3ccc(N4CCCCC4)cn3c2N)cc1` [Compound 10av, 4-(3-amino-6-(piperidin-1-yl)imidazo[1,2-a]pyridin-2-yl)benzonitrile] gave a λex (measurements run with methanol) of 375 nm. For the same compound, under setting [1], the “Quantum Yield” value is recorded as 0.03 and the λem is recorded as 482 nm.

As for `Nc1c(-c2ccc([N+](=O)[O-])cc2)nc2ccc(N3CCCCC3)cn12` [Compound 10aw, 2-(4-nitrophenyl)-6-(piperidin-1-yl)imidazo[1,2-a]pyridin-3-amine], the λex (measurements run with methanol) was 390 nm.

Regarding `COc1cc(-c2nc3cc(-c4ccncc4)ccn3c2N)cc(OC)c1OC` [Compound 10ax, 7-(pyridin-4-yl)-2-(3,4,5-trimethoxyphenyl)imidazo[1,2-a]pyridin-3-amine], where the note is “measurements run with methanol”, the λex was determined as 392 nm. Under setting [1], the “Quantum Yield” value was 0.23 and the λem is recorded as 545 nm.

`CCN(CC)c1ccc(-c2nc3cc(-c4ccncc4)ccn3c2N)cc1` [Compound 10ay, 2-(4-(diethylamino)phenyl)-7-(pyridin-4-yl)imidazo[1,2-a]pyridin-3-amine] came in with a λex (measurements run with methanol) of 435 nm. Further, under setting [1], the “Quantum Yield” value was found to be 0.06 and the λem stood at 581 nm.

In the case of `COc1cc(-c2nc3cc([N+](=O)[O-])ccn3c2N)cc(OC)c1OC` [Compound 10az, 7-nitro-2-(3,4,5-trimethoxyphenyl)imidazo[1,2-a]pyridin-3-amine], the “Quantum Yield” value (10 mm slit) is recorded as 0.11. The compound further showed a λex (measurements run with methanol) of 485 nm. Where the note is “10 mm slit width”, this compound returned a λem of 651 nm.

`COc1cccc(-c2nc3ccccn3c2N)c1OC` [Compound 10b, 2-(2,3-dimethoxyphenyl)imidazo[1,2-a]pyridin-3-amine]: the λex (measurements run with methanol) is reported as 341 nm. For the same compound, under setting [1], the “Quantum Yield” value was 0.40 and the λem is reported as 471 nm.

Turning to `CCN(CC)c1ccc(-c2nc3cc([N+](=O)[O-])ccn3c2N)cc1` [Compound 10ba, 2-(4-(diethylamino)phenyl)-7-nitroimidazo[1,2-a]pyridin-3-amine], the “fluorescence (observation in words)” value is on record as “fluorescence intensity is low”. Moreover, under “10 mm slit”, the “Quantum Yield” value is listed as 0.09. Further, for the setting “measurements run with methanol”, the λex is listed as 550 nm. This compound came in with a λem (10 mm slit width) of 720 nm.

In turn, `COc1cc(-c2nc3ccccn3c2N)cc(OC)c1OC` [Compound 10c, 2-(3,4,5-trimethoxyphenyl)imidazo[1,2-a]pyridin-3-amine] gave a λex (measurements run with methanol) of 343 nm. Under setting [1], the “Quantum Yield” value is 0.38 and the λem is on record as 472 nm.

Take `COc1cc(OC)cc(-c2nc3ccccn3c2N)c1` [Compound 10d, 2-(3,5-dimethoxyphenyl)imidazo[1,2-a]pyridin-3-amine]: the λex (measurements run with methanol) is recorded as 344 nm. Under setting [1], the “Quantum Yield” value is given as 0.35; the λem was 473 nm and 478 nm.

Where the note is “measurements run with methanol”, `Nc1c(-c2ccc3ccccc3c2)nc2ccccn12` [Compound 10e, 2-(naphthalen-2-yl)imidazo[1,2-a]pyridin-3-amine] displayed a λex of 345 nm. For the same compound, under setting [1], the “Quantum Yield” value stood at 0.28 and the λem is listed as 475 nm.
